Measurements published in US8551489B2, “Methods for the treatment of cancers” (MUSC Foundation for Research Development, priority 2008, dated 2013).
“Also recorded” adds a separate entry of the source. Like-named read-outs stand apart in the source and are kept apart here.

How the values were obtained:
bladder cancer cells = assay: Migration and invasion assays; type: cell-based, human
Method: Cell migration experiments were carried out using 8-μm pore size migration chambers (Falcon, Becton Dickinson) precoated at 4° C. overnight with fibronectin (Becton Dickinson) at a concentration of 5 μg per square centimeter in PBS. The following day, the fibronectin solution was aspirated and the migration chambers were rinsed one time with water and allowed to air dry prior to the migration experiment. Cell invasion experiments were carried out using re-hydrated 8-μm pore size invasion chambers precoated with Matrigel (Becton Dickinson). Cells at 80% confluence were trypsinized, harvested, and counted. For each condition, cells were seeded at 25,000 cells/well (T24) or 100,000 cells/well (SV-HUC) in 500 μl serum free media, then added to each migration and invasion chamber. Medium (750 μl) containing 10% serum was used as a chemoattractant in the lower chamber. Both upper and lower chambers contained the indicated compound. Cells were allowed to migrate for eight hours or invade for 24 hours at 37° C. in the presence of 5% CO2. […] Migrating and invading cells in 10 high power fields in each chamber were counted and the mean cell number was calculated. Each experiment was conducted in triplicate and repeated three times.

[1] = system: TCC-SUP human bladder cancer xenografts; assay: Xenograft mouse model, subcutaneous TCC-SUP in nu/nu mice; type: in vivo
Method: FIGS. 9A-B. TP receptor antagonist inhibits bladder cancer tumor growth. (FIG. 9A) Anti-tumor effects of GR32191 and cisplatin treatment in immunocompromised mice. Subcutaneous TCC-SUP human bladder cancer xenografts in nude mice were treated with vehicle control (12 mice), GR32191 (15 mice), 5 mg/kg cisplatin (cisplatin high) (12 mice), 5 mg/kg cisplatin in combination with GR32191 (13 mice), or 0.5 mg/kg (single low dose cisplatin) alone (10 mice) or 0.5 mg/kg cisplatin in combination with GR32191 (10 mice). Tumor size was measured over time. Kaplan-Meier curves showing time to tumor onset across the treatment groups. (FIG. 9B) Pathological evaluation of tumors derived from mice treated with GR32191 (n=15) and vehicle control mice (n=12). Representative images of CD31 staining, TUNEL, staining, PCNA staining, and H&E staining are shown. Graphs on the left indicate the quantitative analysis for each of these markers. Five fields from 5 independent tumors (total 25) were counted and scored blindly. Statistically significant (p<0.05) differences compared to vehicle alone were indicated (++p<0.001 or +p<0.05).
Antigen retrieval was done by heating in a microwave oven for 5 min on high power in 10 mM citrate, pH 6.0. Sections were washed and nonspecific binding was blocked with 10% horse serum in Tris-buffered saline (TBS) (50 mM Tris-HCl, 0.9% NaCl, pH 8.0) for 20 min, then incubated overnight at 4° C. with the TP isoform-specific primary antibodies at a 1:200 dilution in the blocking solution, anti-CD31 antibody (DAKO) was used at dilution 1:25. After overnight incubation at 4° C. followed by three 10-min washes in TBS. Immpress™ horse anti-rabbit secondary was incubated (Vector Laboratories, Burlingame, Calif.) for 45 min at room temperature. Slides were counterstained with hematoxylin. PCNA staining was done utilizing mouse monoclonal antibody against human PCNA (SantaCruz) at dilution 1:200. For TUNEL staining, sections were stained using the Situ Cell Death Detection Kit (Roche Applied Science).
TCC-SUP human bladder cancer cells or SV-HUC cells stably transfected with pcDNA3, TP-α or TP-β were used in a subcutaneous model in immunocompromised (nu/nu) mice. TCC-SUP cells (5×10^6 in PBS) or SV-HUC cells (5×10^7 in Matrigel™, BD Bioscience Inc.) were injected s.c. into the right and left flanks of anesthetized mice. Tumor growth was monitored in these mice twice a week. For mice injected with TCC-SUP, GR32191 or vehicle control was administered daily (20 mg/kg) by gavage with treatment initiated 24 hrs after initial injection. Two cycles of cisplatin (single high dose (5 mg/kg) or single low dose (0.5 mg/kg)) were administrated at day 4 and day 11 post tumor cell injection.
Kaplan-Meier survival curves were constructed for overall mouse survival for two groups with and without over-expressed TP-β receptor protein. ANOVA was used to analyze the in vitro drug treatments and drug combination data. Data are presented as the mean±SD. For all statistical tests, a two-sided p-value<0.05 was used to reject the null hypothesis. Kaplan-Meier curves were used to describe time to tumor onset in each mouse group, and a Cox proportional hazards model was used to estimate and test for differences across treatment groups. Hazard ratios and their 95% confidence intervals were to describe rates of tumor onset and p-values used to compare tumor onset across groups. The proportional hazards assumption was tested using Schoenfeld residuals. Differences in tumor growth were assessed by comparing the slopes of tumor growth across groups based on a linear longitudinal two-stage analysis where slopes were estimated in stage 1 and compared across mice in stage 2. Linear regression coefficients were evaluated using Wald tests. Statistical analyses were performed using R statistical software and utilized the survival library.

T24 cells [2] = assay: Sensitivity of T24 cells to cisplatin with TP receptor antagonists; type: cell-based, human
Method: SV-HUC and T24 cells were seeded at 5,000 cells per well in 96-well plates, and then treated with either compound or vehicle (ethanol) alone. The number of viable cells were quantified at the indicated time points, using the MTT (3-(4,5-Dimethyl-2-thiazolyl)-2,5-diphenyl-2H-tetrazolium bromide thiazole blue) assay, performed in quadruplicate, according to the manufacturer's instructions (Sigma-Aldrich). Optical density (OD) was measured at wavelength of 550 nm with reference wavelength of 690 nm.
Cell viability was analyzed under the microscope at 200× using trypan blue staining. Flow cytometric measurements of apoptosis were as follows. After 12 hours treatment with solvent control or TP receptor antagonists, cells were washed twice in ice cold phosphate buffered saline (PBS) and resuspended in binding buffer (10 mM HEPES, 140 mM NaCl, 2.5 mM CaCl2), at 1×10^6 cells in a 400 μl volume of binding buffer, in duplicate. Cells were incubated with 10 μl of human annexin V-phycoerythrin (PE) (BD Bioscience Inc.) for 15 min at room temperature in dark. […] The TUNEL assay was performed following the protocol of the TUNEL kit's manufacturer (Roche Diagnostics).

tumor cell = assay: Combination with paclitaxel in vitro, tumor cell death; type: cell-based; details: antagonist added to paclitaxel in vitro
[3] = healthy individuals, patients with asthma or cardiovascular diseases, cited from earlier work
T24 cells [4] = assay: Western blot of FAK and ERK phosphorylation in T24 cells; type: cell-based, human; details: serum starved 12 hrs, treated 1 hr
Method: FIG. 6. Effect of TP receptor agonist (U46619) and antagonist (PTXA2) treatment on phosphorylation of FAK and ERK. T24 cells were serum starved for 12 hrs then treated with PTXA2 or U46619 for 1 hr. Tyrosine phosphorylation of FAK was assessed with western blot analysis on […] of cell lysate using anti-FAK pY397 (BD Bioscience) and pERK using a pERK specific antibody.
(§1) Tumor and normal bladder tissues were snap-frozen in liquid nitrogen within 30 minutes after the surgery. Frozen sections were stained with hematoxylin and eosin and samples identified that had at least 70% tumor cells were selected for further studies. Pulverized tissue powders were lysed in RIPA buffer (150 mM NaCl, 50 mM Tris-HCl [pH 8.0], 1% Triton X100, 0.1% SDS, 1% deoxycholate and protease inhibitor cocktail [Complete Protease Inhibitors, Roche]) for 15 minutes on ice. Equal amounts of total protein (40 μg) were resolved by 12% SDS-PAGE and subjected to Western blot analyses using ECL system (Amersham-Pharmacia). Screening Western blots for TP-α and TP-β isoform expression in bladder cancer cell lines was done using rabbit polyclonal antibodies against TP-α or TP-β (described above). SVHUC cells stably transfected with TP-α or TP-β plasmids were screened for PCNA, tubulin, GAPDH, FAK, pFAK, ERK, pERK protein (Santa Cruz) and ICAM-1 (Abcam).

TP-β = target: T1, TP-β (Homo sapiens, UniProt P21731); assay: Phosphorylation of ERK and FAK in SV-HUC cells transfected with TP-β; type: cell-based; details: SV-HUC cells transfected with TP-β
T1 construct: expressed in transfected cells
T1 sequence (P21731 1-407 isoform P21731-2): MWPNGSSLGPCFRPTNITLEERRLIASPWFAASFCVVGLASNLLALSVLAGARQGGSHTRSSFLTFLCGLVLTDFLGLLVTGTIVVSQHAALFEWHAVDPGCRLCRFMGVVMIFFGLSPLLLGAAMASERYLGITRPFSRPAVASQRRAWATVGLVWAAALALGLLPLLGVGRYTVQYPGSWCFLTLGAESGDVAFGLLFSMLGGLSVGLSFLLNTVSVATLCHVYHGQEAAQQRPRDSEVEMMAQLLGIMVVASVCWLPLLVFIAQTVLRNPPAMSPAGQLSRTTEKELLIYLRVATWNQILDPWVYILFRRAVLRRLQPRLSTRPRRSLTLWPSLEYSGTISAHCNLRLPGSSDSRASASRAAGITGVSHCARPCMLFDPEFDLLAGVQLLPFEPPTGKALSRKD
Method: (§2) FIG. 7. Effects of U46619 and PTXA2 on phosphorylation of ERK and FAK. SV-HUC cells transfected with pcDNA3, TP-α or TP-β data are representative of 3 experiments.
as §1
SV-HUC cells were grown to 80% confluence and transfected with 2 μg of pcDNA3 vector encoding either the TP-α or TP-β receptor isoforms. Transfection was performed in 6-well plates using the Fugene reagent (Roche) according to the manufacturer's instructions. After 72 hours post-transfection, cells were selected with 500 μg/ml G418 (Roche) and stable pools isolated after 14 days.

TP-α = target: T2, TP-α (Homo sapiens, UniProt P21731); assay: Phosphorylation of ERK and FAK in SV-HUC cells transfected with TP-α or pcDNA3; type: cell-based
T2 construct: expressed in transfected cells
T2 sequence (P21731 1-343): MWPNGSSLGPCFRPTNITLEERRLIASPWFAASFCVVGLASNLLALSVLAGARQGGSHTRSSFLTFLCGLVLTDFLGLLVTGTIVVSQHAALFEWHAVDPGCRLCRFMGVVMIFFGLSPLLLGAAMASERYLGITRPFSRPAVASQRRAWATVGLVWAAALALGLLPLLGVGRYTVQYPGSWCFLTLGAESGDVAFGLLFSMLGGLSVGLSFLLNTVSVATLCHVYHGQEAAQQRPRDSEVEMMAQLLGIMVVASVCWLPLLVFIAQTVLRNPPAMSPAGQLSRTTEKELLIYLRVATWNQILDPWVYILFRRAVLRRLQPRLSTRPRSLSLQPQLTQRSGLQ
Method: as §2, §1
SV-HUC cells were grown to 80% confluence and transfected with 2 μg of pcDNA3 vector encoding either the TP-α or TP-β receptor isoforms. Transfection was performed in 6-well plates using the Fugene reagent (Roche) according to the manufacturer's instructions. […]

PTN mRNA = PTN mRNA expression after receptor antagonist / agonist; type: cell-based; details: co-incubation of agonist with PTXA2
Source text: (§3) FIGS. 14A-F. TP-β regulation of pleiotrophin (PTN). […] (FIG. 14D) PTN mRNA reduction after PTXA2 treatment. The PTN mRNA levels are restored following the co-treatment with U46619. (FIG. 14E) shRNAi mediated knockdown of β-arrestin-2 reduced agonist dependent increase in PTN mRNA in HT-1376 cells (PTEN:wt), and UM-UC-3 cells (PTEN:minus). (FIG. 14F) Effect of U46619 on JNK1/2 and FOXO3a phosphorylation.

JNK1/2 and FOXO3a = assay: Effect of U46619 on JNK1/2 and FOXO3a; type: cell-based; details: agonist stimulation
Source text: as §3

TP-β and PTEN = target: T3, TP-β and PTEN (Homo sapiens, UniProt P21731); assay: TP-β / PTEN co-immunoprecipitation and immunofluorescence; type: cell-based
T3 construct: endogenous in cells; host or cells: HT-1376 bladder cancer cells
T3 sequence (P21731 1-407 isoform P21731-2): as the sequence (P21731 1-407 isoform P21731-2) above
T3 sequence (P60484 2-403 partner limits assumed): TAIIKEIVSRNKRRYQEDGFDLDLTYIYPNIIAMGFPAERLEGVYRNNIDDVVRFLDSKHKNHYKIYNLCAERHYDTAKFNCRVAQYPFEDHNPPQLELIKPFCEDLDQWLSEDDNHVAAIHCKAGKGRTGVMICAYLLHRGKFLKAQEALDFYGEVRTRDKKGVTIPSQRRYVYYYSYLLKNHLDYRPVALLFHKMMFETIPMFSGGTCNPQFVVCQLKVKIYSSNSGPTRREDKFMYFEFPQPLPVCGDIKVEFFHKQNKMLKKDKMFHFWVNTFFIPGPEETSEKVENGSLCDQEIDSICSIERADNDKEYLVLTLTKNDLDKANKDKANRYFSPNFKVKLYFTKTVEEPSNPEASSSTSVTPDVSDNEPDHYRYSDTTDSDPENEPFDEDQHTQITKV
Method: FIGS. 13A-D. TP-β receptor localization and interaction with PTEN. (FIG. 13A) Co-immunoprecipitation followed by Western blot analysis. Immunoprecipitation with TP-α or TP-β specific antibodies was performed using extracts prepared from HT-1376 cells. […] Extracts prepared from solvent or agonist treated cells were immunoprecipitated with TP-β specific antibody. […] After TP-β stimulation with the U46619, PTEN translocated from the cytoplasm to the nuclear membrane. (FIG. 13D) PTEN lipid phosphatase activity was diminished in SV-HUC cells transfected with TP-β compared to those transfected with TP-α.

[5] = vehicle treated mice compared to GR32191 treated mice

O=C(O)CC/C=C\CC[C@@H]1[C@@H](N2CCCCC2)[C@@H](O)C[C@@H]1OCc1ccc(-c2ccccc2)cc1 [GR32191]
inhibition of cell migration and invasion (bladder cancer cells; complementary studies, data not shown): 65%
time of tumor free mice ([1]; 20 mg/kg daily by gavage): significantly (P<0.04) extended
tumor growth ([1]; 20 mg/kg daily by gavage, monitored over time): significantly inhibited
detection of palpable tumors / time of tumor onset ([1]; 20 mg/kg daily by gavage, started 24 hrs after cell injection): delayed
survival ([1]; GR32191 alone): prolonged survival
survival ([1]; GR32191 in combination with cisplatin): prolonged survival
apoptosis, TUNEL staining ([1]; GR32191 treated compared to vehicle treated mice, p<0.05): significant increase in apoptosis
microvessel density (MVD), CD31 staining ([1]; vehicle control compared to mice treated with GR32191): significantly higher (p<0.05) microvessel density
cell proliferation, PCNA staining [1, 5]: significantly increased (p<0.05) cell proliferation
percentage of undifferentiated tumors, H&E staining [1, 5]: significantly higher percentage (p<0.01) of undifferentiated tumors
sensitivity to cisplatin (T24 cells [2]): enhanced sensitivity to cisplatin
tumor cell death (tumor cell): synergistically increased tumor cell death
safety in clinical studies [3]: shown to be safe
safety in clinical studies ([3]; listed as GR): excellent safety profile

O=C(O)CCC/C=C\C[C@@H]1[C@H](CNNC(=O)Nc2ccccc2)[C@H]2CC[C@@H]1O2 [SQ29548]
sensitivity to cisplatin (T24 cells [2]): enhanced sensitivity to cisplatin
tumor cell death (tumor cell): synergistically increased tumor cell death

CCCCC[C@H](O)/C=C/[C@@H]1[C@@H](C/C=C\CCCC(=O)O)[C@H]2CO[C@@H]1C2 [U46619]
cell migration (bladder cancer cells; T-24 cells, transwell migration assay, 1 μM U46619 for 12 hours): increase in migration
phospho-ERK and phospho-FAK levels (T24 cells [4]): significantly increased; also recorded: increased phosphorylation
phosphorylation of FAK and ERK on agonist stimulation (TP-β): stimulated pERK1/2 and pFAK; also recorded: stimulated the phosphorylation of FAK and ERK
phosphorylation of FAK and ERK on agonist stimulation (TP-α): failed to stimulate
PTN expression (PTN mRNA): restored
JNK1/2 activation (JNK1/2 and FOXO3a): induced JNK1/2 activation
expression of the transcription factor FOXO3a (JNK1/2 and FOXO3a): reduced the expression
localization of TP-β and PTEN proteins (TP-β and PTEN; immunofluorescence, in the presence of agonist): translocated to the nuclear membrane
association between TP-β and PTEN (TP-β and PTEN; immunoprecipitation with TP-β specific antibody, agonist versus solvent treated cells): Increased association between TP-β and PTEN
